# Paper PMC4350845, “Polyphosphatase PPN1 of Saccharomyces cerevisiae: Switching of Exopolyphosphatase and Endopolyphosphatase Activities” (PLoS ONE, 2015)
# Target: T1, polyphosphatase PPN1 (Saccharomyces cerevisiae, UniProt Q04119)
# T1 construct: recombinant, overexpressed in S. cerevisiae CRN/pMB1_PPN1 Sc and purified; proteolytically matured form of ~33 kDa on SDS-PAGE (precursor predicted 78 kDa); no tag mentioned
# T1 sequence (Q04119 84-384): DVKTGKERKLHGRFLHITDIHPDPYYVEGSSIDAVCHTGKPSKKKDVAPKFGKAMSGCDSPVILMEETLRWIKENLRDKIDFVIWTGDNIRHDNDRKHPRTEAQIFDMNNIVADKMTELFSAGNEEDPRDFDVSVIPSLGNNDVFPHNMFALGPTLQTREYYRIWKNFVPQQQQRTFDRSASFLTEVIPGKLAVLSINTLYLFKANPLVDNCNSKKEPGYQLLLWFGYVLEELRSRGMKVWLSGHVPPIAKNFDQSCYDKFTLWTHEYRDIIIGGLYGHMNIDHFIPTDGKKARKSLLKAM
# Experiment: inhibition of exopolyphosphatase activity (Pi release from PolyP208)
# Type: biochemical
# Conditions: inhibitor; PolyP208 2.5 mM as Pi, 0.1 mM CoSO4, 200 mM NH4Cl, pH 7.2, 30 C
row,% of control activity at 2.0 mM,Structure (SMILES)
1,PPi and PolyP3 inhibited Pi release,O=P(O)(O)OP(=O)(O)O [PPi]
2,PPi and PolyP3 inhibited Pi release,O=P(O)(O)OP(=O)(O)OP(=O)(O)O [PolyP3]
